Series [1] concerns peripheral blood mononuclear cells (PBMCs). As to the kind of experiment: in vitro cytotoxicity in PBMC (MTT). As to conditions: human PBMC, 24 h, MTT. Format: cell-based, human. How it is done: (§1) In vitro cytotoxicity was evaluated using peripheral blood mononuclear cells (PBMCs) collected from three healthy volunteers (2 males, mean age 33; and 1 person). PBMCs were separated by density gradient using Ficoll Paque PLUS (GE Healthcare, USA), pelleted by centrifugation (400× g for 40 min), and resuspended in RPMI 1640 medium, then supplemented with 10% fetal bovine serum and 1% antibiotic solution (penicillin 5000 Units/mL + streptomycin 5000 μg/mL). After 24 h of treatment, cell viability was evaluated by the modified colorimetric method based on the tetrazolium dye MTT (3-(4,5-dimethylthiazol-2-yl)-2,5- diphenyltetrazolium bromide). The MTT assay was used for in vitro cytotoxicity as previously described with the following modifications: cells were exposed to serially diluted concentrations of LQOFG-2, LQOFG-6, LQOFG-7 (1000 to 7.8 µM), and AmB (100 to 0.78 µM). The plates were kept at 37 °C for 24 h. MTT (5 mg/mL) was added and incubated for 4 h at 37 °C, after which the plates were centrifuged, the supernatant was discarded, and DMSO was added, leaving the plates under stirring to solubilize the formazan salts. Absorbance was measured at 540 nm using a plate reader (ELx800; Curitiba, PR, Brazil). The mean percentage of viable cells was calculated relative to the untreated control.

Series [2] in a line: in vitro cytotoxicity in PBMC (MTT). In kind it is cell-based, human. Particulars: both sexes, human, peripheral blood mononuclear cells (PBMCs), human PBMC, 24 h, MTT. How it is done: as §1
In series [3] the test system is L. infantum promastigotes. As to the kind of experiment: promastigote growth inhibition assay (MTT). As to conditions: Leishmania infantum, 72 h, 26 °C. In kind it is cell-based. How it is done:
The promastigote forms of Leishmania (Leishmania) infantum [IOC/L0579(MHOM/BR/1974/PP75)] were cultured in Schneider’s medium, pH 7.0, supplemented with 20% heat-inactivated fetal bovine serum (FBS), 2% male human urine, 100 U/mL of penicillin, and 100 mg/L of streptomycin, and the parasites were maintained at 26 °C. The procedure to obtain the extracellular axenic amastigote form of L. infantum was based on methods previously described that were modified using a Schneider medium readjusted to pH 5.5 at 37 °C. The culture of promastigote forms in the stationary phase was centrifuged, and the medium of these cells was replaced and differentiated into axenic amastigotes by temperature and medium pH changes. Parasites were maintained in culture for no more than 20 passages.
The promastigote growth inhibition assay was performed as previously described. Promastigotes were harvested during the exponential growth phase. They were incubated in the presence and absence of several concentrations of LQOFG-2, LQOFG-6, LQOFG-7 (500 to 7.8 µM), and AmB (10 to 0.078 µM) as the positive control. The plate was incubated at 26 °C for 72 h in a biological oxygen demand (B.O.D.) incubator using a Schneider’s medium (Schneider’s Insect Medium 24.5 g/L; L-glutamine 1.8 g/L; glucose 2 g/L and sodium bicarbonate 0.4 g/L; Sigma-Aldrich—St. Louis—USA) supplemented. The growth inhibition was evaluated using an MTT assay kit (Amresco, Solon, OH, USA) according to the manufacturer’s protocol. After 4 h of incubation, 10% sodium dodecyl sulfate was added to dissolve the formazan crystals. The absorbance (540 nm) was measured using a plate reader (Biosystems model ELx800; Curitiba, PR, Brazil). […] Three independent experiments we performed in triplicate.

Series [4] deals with L. infantum axenic amastigotes. As to the kind of experiment: axenic amastigote inhibition assay (MTT). In kind it is cell-based. As to conditions: Leishmania infantum, 24 h; for EC50: 37 °C, pH 5.5, MTT.

In general, CC50 refers to the concentration at which the toxic effect on the cells reaches its halfway point. A low value points to harm at low concentration. In general, IC50 refers to the concentration at which inhibition is half-maximal. What is called EC50 is the concentration needed to bring the measured effect to its halfway point. High values mean lower potency in that assay, low ones higher potency in that assay. `C[C@@H]1[C@H](O)[C@@H](C)/C=C/C=C/C=C/C=C/C=C/C=C/C=C/[C@H](O[C@@H]2O[C@H](C)[C@@H](O)[C@H](N)[C@@H]2O)C[C@@H]2O[C@](O)(C[C@@H](O)C[C@@H](O)[C@H](O)CC[C@@H](O)C[C@@H](O)CC(=O)O[C@H]1C)C[C@H](O)[C@H]2C(=O)O` [Amphotericin B, reference compound]: the CC50 in series [1] was determined as 53.8 ± 3.59 µM. In series [2], this compound gave a CC50 at 24 h of 53.9 ± 3.59 µM. In series [3], this compound came in with a 50% inhibitory concentration (IC50) of 1.5 ± 0.23 µM. For the same compound, the EC50 in series [4] came out at 0.3 µM.
A word on the inhibition: it is the percentage by which the read-out fell short of the control. For `O=C(/N=C(/NCc1ccccc1)Nc1ccc(I)cc1)c1ccccc1` [LQOFG-7, (Z)-N-((benzylamine)((4-iodophenyl)amino)methylene)benzamide], in series [2], half-maximal cytotoxicity (CC50 at 24 h) was put at 745.5 ± 3.58 µM. This compound also had an IC50 in series [3] of 23.6 ± 0.64 µM. Further, a half-maximal effect in series [4] (EC50) was put at 18.6 ± 1.23 µM. Further, the inhibition at 31.2 µM in series [4] (at 31.2 µM, read-out: inhibition of axenic amastigotes compared to the control (untreated)) was 58%.

(Values after publication PMC10051705, “Leishmanicidal Activity of Guanidine Derivatives against Leishmania infantum” (Tropical Medicine and Infectious Disease, 2023).)
